Our source for the IC50 values is patent US9994587B2, “HIV protease inhibitors” (priority 2014, dated 2018).

The target of this experiment is T1, wildtype HIV-1 protease (Human immunodeficiency virus type 1 group M subtype B, UniProt P04585).
T1 construct: preincubated with the HIV-1 protease (wild type) enzyme in assay buffer; made in house; host or cells: Escherichia coli
Put plainly: Assay for inhibition of microbial expressed HIV protease (Pepcleav). Format: biochemical. The note with it: wild type HIV-1 protease 20 pM, peptide substrate 400 micromolar, pH 5.5; mean of at least two independent experiments. In a few lines:
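E. coli-expressed enzyme preincubated with inhibitor 30 min at room temperature in 50 mM sodium acetate pH 5.5, 100 mM NaCl, 0.1% BSA, then 400 micromolar peptide substrate added with 20 picomolar protease (final), 1 h at 30° C. Product quantified by LC-MS/MS peak area after formic acid/indinavir quench.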
Consider `COC(=O)N[C@H](C(=O)Nc1ccccc1CC[C@@H]1CNC[C@@H](COc2cccc3cc[nH]c23)O1)C(c1ccccc1)c1ccccc1` [Example 38, N-[2-(2-{(2R,6S)-6-[(1H-indol-7-yloxy)methyl]morpholin-2-yl}ethyl)phenyl]-Na-(methoxycarbonyl)-b-phenyl-L-phenylalaninamide], for which the IC50 was 240 nM. This lies in the sub-micromolar range. Under `N[C@H](C(=O)Nc1cncc(F)c1CC[C@@H]1CNC[C@@H](COC(=O)NCc2ccc(F)cc2)O1)C(c1ccc(F)cc1)c1ccc(F)cc1` [Example 125, 4-fluoro-N-(5-fluoro-4-{2-[(2R,6S)-6-({[(4-fluorobenzyl)carbamoyl]oxy}methyl)morpholin-2-yl]ethyl}pyridin-3-yl)-β-(4-fluorophenyl)-L-phenylalaninamide] stands 15 nM; under `CC(C)COC[C@@H]1CNC[C@@H](CCc2c(F)cncc2NC(=O)[C@@H](N)C(c2ccc(F)cc2)c2ccc(F)cc2)O1` [Example 132, 4-fluoro-N-[5-fluoro-4-(2-{(2R,6S)-6-[(2-methylpropoxy)methyl]morpholin-2-yl}ethyl)pyridin-3-yl]-β-(4-fluorophenyl)-L-phenylalaninamide], 430 nM; under `N[C@H](C(=O)Nc1cccc(F)c1CC[C@@H]1CNC[C@@H](CSc2ccc(Cl)cc2)O1)C(c1ccc(F)cc1)c1ccc(F)cc1` [Example 121, N-(2-{2-[(2R,6S)-6-{[(4-chlorophenyl)sulfanyl]methyl}morpholin-2-yl]ethyl}-3-fluorophenyl)-4-fluoro-β-(4-fluorophenyl)-L-phenylalaninamide], 5.2 nM. Under `COC(=O)N[C@H](C(=O)Nc1c(CC[C@@H]2CNC[C@@H](COc3ccc(C#N)cc3)O2)cc[nH]c1=O)C(c1ccccc1)c1ccccc1` [Example 86, N-[4-(2-{(2R,6S)-6-[(4-cyanophenoxy)methyl]morpholin-2-yl}ethyl)-2-oxo-1,2-dihydropyridin-3-yl]-Nα-(methoxycarbonyl)-β-phenyl-L-phenylalaninamide] stands 4.1 nM; under `COC(=O)N[C@H](C(=O)Nc1ccccc1CC[C@@H]1CNC[C@@H](CSc2ncnc3[nH]ncc23)O1)C(c1ccccc1)c1ccccc1` [Example 35, methyl N-[(1S)-1-benzhydryl-2-oxo-2-[[2-[2-[(2R,6S)-6-(1H-pyrazolo[3,4-d]pyrimidin-4-ylsulfanylmethyl)morpholin-2-yl]ethyl]phenyl]amino]ethyl] carbamate], 2.1 nM; under `COC(=O)N[C@H](C(=O)Nc1cccc(F)c1CC[C@@H]1CNC[C@@H](CSc2ccc(Cl)cc2)O1)C(c1ccccc1)c1ccccc1` [Example 73, N-(2-{2-[(2R,6S)-6-{[(4-chlorophenyl)sulfanyl]methyl}morpholin-2-yl]ethyl}-3-fluorophenyl)-Nα-(methoxycarbonyl)-β-phenyl-L-phenylalaninamide], 0.89 nM. Under `N[C@H](C(=O)Nc1cncc(F)c1CC[C@@H]1CNC[C@@H](COC(=O)NCC(F)(F)F)O1)C(c1ccc(F)cc1)c1ccc(F)cc1` [Example 123, 4-fluoro-β-(4-fluorophenyl)-N-(5-fluoro-4-{2-[(2R,6S)-6-({[(2,2,2-trifluoroethyl)carbamoyl]oxy}methyl)morpholin-2-yl]ethyl}pyridin-3-yl)-L-phenylalaninamide] stands 16 nM.

Molecule `COC(=O)N[C@H](C(=O)Nc1cccnc1CC[C@@H]1CNC[C@@H](COc2cccc(C#N)c2)O1)C(c1ccccc1)c1ccccc1` [Example 113, N-[2-(2-{(2R,6S)-6-[(3-cyanophenoxy)methyl]morpholin-2-yl}ethyl)pyridin-3-yl]-Nα-(methoxycarbonyl)-β-phenyl-L-phenylalaninamide] had an IC50 of 510 nM.

A word on the IC50: it is the point on the concentration scale where inhibition reaches its midpoint.
